Molecular target: Casein kinase 1 delta (CSKN1D) (Homo sapiens, UniProt P48730)
Test: Casein kinase assay, CK1 delta
Assay type: biochemical
Settings: recombinant CSKN1D 5 nM, ATP 10 μM
Experimental: The recombinant protein Casein kinase 1 delta (CSKN1D) was added to the substrate solution in a concentration of 5 nM and gently mixed. Dilution series in of compounds of the present invention in DMSO were added to the reaction mixture, followed after 20 min by addition of a mixture of ATP and ^33P-ATP (specific activity 0.01 μCi/μl final) to a final concentration of 10 μM. Reactions were carried out at 25° C. for 120 min, followed by spotting the reactions onto P81 ion exchange filter paper. Unbound phosphate was removed by washing of the filters in 0.75% phosphoric acid. […] IC50 values and curve fits were obtained using the program Prism® (Graph Pad Software).

Casein kinase 1 delta (CSKN1D), sequence (P48730 whole entry): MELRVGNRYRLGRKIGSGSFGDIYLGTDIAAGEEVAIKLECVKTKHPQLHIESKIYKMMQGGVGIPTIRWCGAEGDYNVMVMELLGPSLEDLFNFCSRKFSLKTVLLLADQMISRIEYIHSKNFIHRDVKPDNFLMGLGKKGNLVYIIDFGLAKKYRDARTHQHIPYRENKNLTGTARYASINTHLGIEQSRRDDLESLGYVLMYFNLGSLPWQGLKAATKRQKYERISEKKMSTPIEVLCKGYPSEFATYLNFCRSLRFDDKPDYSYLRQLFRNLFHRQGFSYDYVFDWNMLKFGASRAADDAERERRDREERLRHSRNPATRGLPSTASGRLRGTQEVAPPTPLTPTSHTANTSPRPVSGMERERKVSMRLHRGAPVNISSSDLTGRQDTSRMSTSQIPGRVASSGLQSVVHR

| IC50 | Compound |
| --- | --- |
| < 0.2 µM | Nc1ccc(C(=O)Nc2nc3cc4c(cc3[nH]2)OC(F)(F)O4)cc1 [Compound 60, 4-amino-N-(2,2-difluoro-5H-[1,3]dioxolo[4′,5′:4,5]benzo[1,2-d]imidazol-6-yl)benzamide] |
| > 1 µM | O=C(Nc1nc2cc3c(cc2[nH]1)OC(F)(F)O3)c1ccc(Cl)cc1 [Compound 106, 4-chloro-N-(2,2-difluoro-5H-[1,3]dioxolo[4′,5′:4,5]benzo[1,2-d]imidazol-6-yl)benzamide] |
| < 0.2 µM | CC(=O)c1cccc(C(=O)Nc2nc3cc4c(cc3[nH]2)OC(F)(F)O4)c1 [Compound 114, 3-acetyl-N-(2,2-difluoro-5H-[1,3]dioxolo[4′,5′:4,5]benzo[1,2-d]imidazol-6-yl)benzamide] |
| < 0.2 µM | COc1cncc(C(=O)Nc2nc3cc4c(cc3[nH]2)OC(F)(F)O4)c1 [Compound 123, N-(2,2-difluoro-5H-[1,3]dioxolo[4′,5′:4,5]benzo[1,2-d]imidazol-6-yl)-5-methoxynicotinamide] |
| 0.2 to 1 µM | CC(C)(C)c1ccc(C(=O)Nc2nc3cc4c(cc3[nH]2)OC(F)(F)O4)cc1 [Compound 115, 4-(tert-butyl)-N-(2,2-difluoro-5H-[1,3]dioxolo[4′,5′:4,5]benzo[1,2-d]imidazol-6-yl)benzamide] |
| > 1 µM | Cc1cc(C(=O)Nc2nc3cc4c(cc3[nH]2)OC(F)(F)O4)nn1C [Compound 146, N-(2,2-difluoro-5H-[1,3]dioxolo[4′,5′:4,5]benzo[1,2-d]imidazol-6-yl)-1,5-dimethyl-1H-pyrazole-3-carboxamide] |
| 0.2 to 1 µM | O=C(Nc1nc2cc3c(cc2[nH]1)OC(F)(F)O3)c1ccc(F)cc1 [Compound 119, N-(2,2-difluoro-5H-[1,3]dioxolo[4′,5′:4,5]benzo[1,2-d]imidazol-6-yl)-4-fluorobenzamide] |
| 0.2 to 1 µM | Nc1ccc(C(=O)Nc2nc3cc4c(cc3[nH]2)OC(F)(F)O4)cc1F [Compound 127, 4-amino-N-(2,2-difluoro-5H-[1,3]dioxolo[4′,5′:4,5]benzo[1,2-d]imidazol-6-yl)-3-fluorobenzamide] |
| > 1 µM | O=C(Nc1nc2cc3c(cc2[nH]1)OC(F)(F)O3)c1ccccn1 [Compound 67, N-(2,2-difluoro-5H-[1,3]dioxolo[4′,5′:4,5]benzo[1,2-d]imidazol-6-yl)picolinamide] |
| < 0.2 µM | O=C(Nc1nc2cc3c(cc2[nH]1)OC(F)(F)O3)c1csc(-c2cccc(F)c2)n1 [Compound 12B, N-(2,2-difluoro-5H-[1,3]dioxolo[4′,5′:4,5]benzo[1,2-d]imidazol-6-yl)-2-(3-fluorophenyl)thiazole-4-carboxamide] |
| < 0.2 µM | O=C(Nc1nc2cc3c(cc2[nH]1)OC(F)(F)O3)c1cccc(N2CCCCC2)c1 [Compound 128, N-(2,2-difluoro-5H-[1,3]dioxolo[4′,5′:4,5]benzo[1,2-d]imidazol-6-yl)-3-(piperidin-1-yl)benzamide] |
| < 0.2 µM | NC(=O)c1ccc(C(=O)Nc2nc3cc4c(cc3[nH]2)OC(F)(F)O4)c(F)c1 [Compound 94, N^1-(2,2-difluoro-5H-[1,3]dioxolo[4′,5′:4,5]benzo[1,2-d]imidazol-6-yl)-2-fluoroterephthalamide] |
| > 1 µM | Cc1cc(C(=O)Nc2nc3cc4c(cc3[nH]2)OC(F)(F)O4)no1 [Compound 145, N-(2,2-difluoro-5H-[1,3]dioxolo[4′,5′:4,5]benzo[1,2-d]imidazol-6-yl)-5-methylisoxazole-3-carboxamide] |
| < 0.2 µM | O=C(Nc1nc2cc3c(cc2[nH]1)OC(F)(F)O3)c1csc(-c2ccsc2)n1 [Compound 81, N-(2,2-difluoro-5H-[1,3]dioxolo[4′,5′:4,5]benzo[1,2-d]imidazol-6-yl)-2-(thiophen-3-yl)thiazole-4-carboxamide] |
| 0.2 to 1 µM | O=C(Nc1nc2cc3c(cc2[nH]1)OC(F)(F)O3)c1ccc([N+](=O)[O-])cc1 [Compound 58, N-(2,2-difluoro-5H-[1,3]dioxolo[4′,5′:4,5]benzo[1,2-d]imidazol-6-yl)-4-nitrobenzamide] |
| < 0.2 µM | O=C(Nc1nc2cc3c(cc2[nH]1)OC(F)(F)O3)c1cccc(F)c1 [Compound 70, N-(2,2-difluoro-5H-[1,3]dioxolo[4′,5′:4,5]benzo[1,2-d]imidazol-6-yl)-3-fluorobenzamide] |
| < 0.2 µM | NS(=O)(=O)c1cccc(C(=O)Nc2nc3cc4c(cc3[nH]2)OC(F)(F)O4)c1 [Compound 100, N-(2,2-difluoro-5H-[1,3]dioxolo[4′,5′:4,5]benzo[1,2-d]imidazol-6-yl)-3-sulfamoylbenzamide] |
| < 0.2 µM | O=C(Nc1nc2cc3c(cc2[nH]1)OC(F)(F)O3)c1cncc(-c2cccs2)c1 [Compound 23B, N-(2,2-difluoro-5H-[1,3]dioxolo[4′,5′:4,5]benzo[1,2-d]imidazol-6-yl)-5-(thiophen-2-yl)nicotinamide] |
| < 0.2 µM | NS(=O)(=O)c1c[nH]c(C(=O)Nc2nc3cc4c(cc3[nH]2)OC(F)(F)O4)c1 [Compound 101, N-(2,2-difluoro-5H-[1,3]dioxolo[4′,5′:4,5]benzo[1,2-d]imidazol-6-yl)-4-sulfamoyl-1H-pyrrole-2-carboxamide] |

| IC50 | Compound |
| --- | --- |
| < 0.2 µM | COc1cc(C(=O)Nc2nc3cc4c(cc3[nH]2)OC(F)(F)O4)ccn1 [Compound 124, N-(2,2-difluoro-5H-[1,3]dioxolo[4′,5′:4,5]benzo[1,2-d]imidazol-6-yl)-2-methoxyisonicotinamide] |
| 0.2 to 1 µM | O=C(Nc1nc2cc3c(cc2[nH]1)OC(F)(F)O3)c1c[nH]cn1 [Compound 103, N-(2,2-difluoro-5H-[1,3]dioxolo[4′,5′:4,5]benzo[1,2-d]imidazol-6-yl)-1H-imidazole-4-carboxamide] |
| > 1 µM | COc1ccnc(C(=O)Nc2nc3cc4c(cc3[nH]2)OC(F)(F)O4)c1 [Compound 26B] |
| < 0.2 µM | CC(C)c1nc(-c2cccc(C(=O)Nc3nc4cc5c(cc4[nH]3)OC(F)(F)O5)c2)no1 [Compound 131, N-(2,2-difluoro-5H-[1,3]dioxolo[4′,5′:4,5]benzo[1,2-d]imidazol-6-yl)-3-(5-isopropyl-1,2,4-oxadiazol-3-yl)benzamide] |
| < 0.2 µM | O=C(Nc1nc2cc3c(cc2[nH]1)OC(F)(F)O3)C1CCCCC1 [Compound 80, N-(2,2-difluoro-5H-[1,3]dioxolo[4′,5′:4,5]benzo[1,2-d]imidazol-6-yl)cyclohexanecarboxamide] |
| < 0.2 µM | O=C(Nc1nc2cc3c(cc2[nH]1)OC(F)(F)O3)c1cccnc1 [Compound 78, N-(2,2-difluoro-5H-[1,3]dioxolo[4′,5′:4,5]benzo[1,2-d]imidazol-6-yl)nicotinamide] |
| < 0.2 µM | O=C(Nc1nc2cc3c(cc2[nH]1)OC(F)(F)O3)c1cccc(O)c1 [Compound 113, N-(2,2-difluoro-5H-[1,3]dioxolo[4′,5′:4,5]benzo[1,2-d]imidazol-6-yl)-3-hydroxybenzamide] |
| 0.2 to 1 µM | O=C(Nc1nc2cc3c(cc2[nH]1)OC(F)(F)O3)c1ccc(Cl)c(Cl)c1 [Compound 109, 3,4-dichloro-N-(2,2-difluoro-5H-[1,3]dioxolo[4′,5′:4,5]benzo[1,2-d]imidazol-6-yl)benzamide] |
| < 0.2 µM | O=C(Nc1nc2cc3c(cc2[nH]1)OC(F)(F)O3)c1cncc(N2CCOCC2)c1 [Compound 25B, N-(2,2-difluoro-5H-[1,3]dioxolo[4′,5′:4,5]benzo[1,2-d]imidazol-6-yl)-5-morpholinonicotinamide] |
| 0.2 to 1 µM | O=C(Nc1nc2cc3c(cc2[nH]1)OC(F)(F)O3)c1cnco1 [Compound 71, N-(2,2-difluoro-5H-[1,3]dioxolo[4′,5′:4,5]benzo[1,2-d]imidazol-6-yl)oxazole-5-carboxamide] |
| < 0.2 µM | O=C(Nc1nc2cc3c(cc2[nH]1)OC(F)(F)O3)c1cccc(-c2nnn[nH]2)c1 [Compound 118, N-(2,2-difluoro-5H-[1,3]dioxolo[4′,5′:4,5]benzo[1,2-d]imidazol-6-yl)-3-(1H-tetrazol-5-yl)benzamide] |
| > 1 µM | Cc1onc(-c2ccccc2)c1C(=O)Nc1nc2cc3c(cc2[nH]1)OC(F)(F)O3 [Compound 50, N-(2,2-difluoro-5H-[1,3]dioxolo[4′,5′:4,5]benzo[1,2-d]imidazol-6-yl)-5-methyl-3-phenylisoxazole-4-carboxamide] |
| 0.2 to 1 µM | CCN(CC)c1ccc(C(=O)Nc2nc3cc4c(cc3[nH]2)OC(F)(F)O4)cc1 [Compound 74, 4-(diethylamino)-N-(2,2-difluoro-5H-[1,3]dioxolo[4′,5′:4,5]benzo[1,2-d]imidazol-6-yl)benzamide] |
| > 1 µM | N#Cc1ccc(C(=O)Nc2nc3cc4c(cc3[nH]2)OC(F)(F)O4)c(F)c1 [Compound 93, 4-cyano-N-(2,2-difluoro-5H-[1,3]dioxolo[4′,5′:4,5]benzo[1,2-d]imidazol-6-yl)-2-fluorobenzamide] |
| < 0.2 µM | CCNc1ccc(C(=O)Nc2nc3cc4c(cc3[nH]2)OC(F)(F)O4)cc1 [Compound 77, N-(2,2-difluoro-5H-[1,3]dioxolo[4′,5′:4,5]benzo[1,2-d]imidazol-6-yl)-4-(ethylamino)benzamide] |
| > 1 µM | Cc1ccc(C(=O)Nc2nc3cc4c(cc3[nH]2)OC(F)(F)O4)cc1 [Compound 107, N-(2,2-difluoro-5H-[1,3]dioxolo[4′,5′:4,5]benzo[1,2-d]imidazol-6-yl)-4-methylbenzamide] |
| < 0.2 µM | NS(=O)(=O)c1ccc(C(=O)Nc2nc3cc4c(cc3[nH]2)OC(F)(F)O4)cn1 [Compound 112, N-(2,2-difluoro-5H-[1,3]dioxolo[4′,5′:4,5]benzo[1,2-d]imidazol-6-yl)-6-sulfamoylnicotinamide] |
| 0.2 to 1 µM | O=C(Nc1nc2cc3c(cc2[nH]1)OC(F)(F)O3)c1ccc(-c2ccccc2)cc1 [Compound 21B] |
| < 0.2 µM | O=C(Nc1nc2cc3c(cc2[nH]1)OC(F)(F)O3)c1ccc(-n2cnnn2)cc1 [Compound 22B, N-(2,2-difluoro-5H-[1,3]dioxolo[4′,5′:4,5]benzo[1,2-d]imidazol-6-yl)-4-(1H-tetrazol-1-yl)benzamide] |

— patent US20170240556A1, “BIFLUORODIOXALANE-AMINO-BENZIMIDAZOLE KINASE INHIBITORS FOR THE TREATMENT OF CANCER, AUTOIMMUNEINFLAMMATION AND CNS DISORDERS” (4SC DISCOVERY GMBH, priority 2012, published 2017)
